Reference: patent US20160184279A1, “METHODS OF TREATING PAIN AND/OR ITCH WITH SMALL MOLECULE INHIBITORS TARGETING AN mTOR PATHWAY” (Transderm, Inc., priority 2014, published 2016)

Experiment: Solubility of rapamycin in solvents
Type: physicochemical
Source text: Formulations for topical or transdermal delivery systems which effectively administer mTOR inhibitors to treat pain can be challenging to make. One such challenge can be caused by the structures of the various mTOR inhibitors and the associated solubility and/or stability challenges that exist for many of these compounds. […] Benzyl alcohol has been identified as a solvent that can effectively solubilize rapamycin. In particular, benzyl alcohol can support 20 wt % solutions and higher of rapamycin. […] For example, formulations utilizing Span 80 and/or Tween 20 as surfactants were only able to achieve benzyl alcohol loading of 20 wt % or less.

What does the source list for `CO[C@H]1C[C@@H]2CC[C@@H](C)[C@@](O)(O2)C(=O)C(=O)N2CCCC[C@H]2C(=O)O[C@H]([C@H](C)C[C@@H]2CC[C@@H](O)[C@H](OC)C2)CC(=O)[C@H](C)/C=C(\C)[C@@H](O)[C@@H](OC)C(=O)[C@H](C)C[C@H](C)/C=C/C=C/C=C/1C` [rapamycin]?
solubility in aqueous compositions, ethanolic compositions, triglycerides, alkanes, and silicone systems: poorly solubilized; solubility in benzyl alcohol (benzyl alcohol solution): ≥ 20 wt %
